Measured values taken from US4623648A, “1-azaxanthone for use as therapeutic agent as an antipyretic, analgesic, anti-inflammatory and bronchodilator” (priority 1981, dated 1986).
In brackets after ≈: the same amount, converted by molar mass.

Tests used:
rats [1] = assay: 14 day oral tolerance of gastric and rectal mucosae and liver elimination of sulphobromophthalein; assay type: in vivo; conditions: 200 mg/kg/day oral, 14 consecutive days
rats [2] = assay: Subacute toxicity study in rats (42 days); assay type: in vivo
mice [3] = assay: Acetic acid induced writhing in mice; assay type: in vivo; conditions: Mus musculus; oral; 95% confidence limits 2.1-3.4
Description: (§1) Sprague-Dawley rats, Swiss mice, California rabbits and mongrel guinea pigs and cats were used. 1-azaxanthone was administered as a suspension in 0.5 % w/v of carboxymethyl-cellulose in distilled water for oral and i.p. administration. When administered i.v. or to the nutrient liquid of the isolated tissues, a solution of the compound in isopropylidenglycerol (15 mg/ml) was used.
Acetic acid induced writhing in mice (according to R. Koster et al., Fedn. Proc. 1959, 18, 412).

rats [4] = assay: D'Amour and Smith test in rats; assay type: in vivo; conditions: oral dose of ca. 100 mg/kg, 1 hour before testing
Description: as §1
"D'Amour and Smith" test in rats (see J. Pharmacol. Exptl. Therap., 1941, 72, 74). An analgesimeter LETICA model 7100 was used. An oral dose of ca. 100 mg/kg of 1-azaxanthone, administered 1 hour before testing produced analgesia in 50% of the animals.

[5] = test system: guinea pig tracheal chain; assay: Isolated guinea pig tracheal chain; conditions: Cavia porcellus, bath nutrient liquid
Description: as §1
Isolated guinea pig tracheal chain (according to J. C. Castillo and E. K. DeBeer, J. Pharmacol. Exptl. Ther. 1947, 90, 104). 1-azaxanthone produced maximum relaxation of the tracheal muscle at a concentration of 20 μg/ml in the bath nutrient liquid. The minimun effective dose was about 5 μg/ml.

[6] = test system: schistosomiasis infections; conditions: F. G. Mann, J. A. Reid, J. Chem. Soc. 1952; cited from earlier work
guinea pig [7] = assay: Inhibition of the bronchoconstrictor response to histamine in guinea pig; assay type: in vivo; conditions: 8 mg/kg i.v., 5 μg histamine
Description: as §1
Inhibition of the bronchoconstrictor response to histamine in guinea pig (according to H. Konzett and R. Rossler, Arch. Exptl. Path. Pharmak. 1940, 195, 71). 1-azaxanthone (8 mg/kg i.v.) inhibited the response induced by 5 μg of histamine by 100% at 5 min, 67% at 10 min, 50% at 20 min, and 15% at 30 min after administration.

[8] = Acute toxicity in rats and mice (overall ranges); conditions: in vivo, depending on species and sex
Description: (§2) The acute toxicity of 1-azaxanthone was evaluated in rats and mice. LD50 values ranged between 400-600 mg/kg (i.p. route) and between 600-2000 mg/kg (oral route) depending on species and sex.

mice [9] = assay: Hot plate test in mice; assay type: in vivo; conditions: Mus musculus; oral, 1 hour before; plate 57°±0.5° C.; 95% confidence limits 11-39
Description: as §1
Hot plate test in mice. An analgesimeter LETICA model 7000 was used, the temperature of the plate being maintained at 57°±0.5° C. The test compound was administered by oral route 1 hour before placing the animals on the plate.

granuloma pouch = assay: Granuloma pouch; conditions: in vivo
guinea pig [10] = assay: Inhibition of the bronchoconstrictor response to bradykinin in guinea pig; assay type: in vivo; conditions: 8 mg/kg i.v.; 10 min after 6 μg and 8 min before 12 μg of bradykinin
Description: as §1
Inhibition of the bronchoconstrictor response to bradykinin in guinea pig (according to H. Konzett and R. Rossler, ibid.). 1-azaxanthone (8 mg/kg i.v.) produced a 100% inhibition of the response induced by bradykinin when the test compound was administered 10 min after 6 μg and 8 min before 12 μg of bradykinin.

[11] = test system: Mycob. Butyricum induced arthritis; assay: Mycob. Butyricum induced arthritis; assay type: in vivo; conditions: only in preventative treatment
Excerpt: Butyricum induced arthritis (only in preventative treatment).

rats [12] = assay: Preliminary teratogenesis studies in rats; assay type: in vivo
rat paw oedema = assay: Carrageenan rat paw oedema; assay type: in vivo; conditions: po, per os, 95% confidence limits 6.0-37.3
Description: as §1
(§3) Carrageenan rat paw oedema (according to C. A. Winter et al., Proc. Soc. Exptl. Biol. N.Y. 1962, 111, 544).

[13] = Solubility by the equilibrium (saturation) technique; assay type: physicochemical; conditions: 20-25° C.
Description: The solubilities of 1-azaxanthone in several solvents were determined at 20-25° C. by the equilibrium (saturation) technique, measuring the concentration spectrophotometrically at 335 nm or by high pressure liquid chromatography/spectrophotometry. The following values (in mg/ml) were obtained: water: 0.08; 0.1 N HCl: 0.07; 0.1 N NaOH: 0.07; buffer pH 7.4: 0.06; methanol: 7.6; ethanol: 6.2; propyleneglycol: 5.0; ethyl acetate: 20; chloroform: >50; dioxane: 65.

cardiocirculatory system = assay: Effect on the cardiocirculatory system; assay type: in vivo; conditions: rats, cats and dogs
mice [14] = assay: Charcoal intestinal transit in mice; assay type: in vivo
Description: as §1
Charcoal intestinal transit in mice. 1-azaxanthone was administered i.p. 1 hour before the oral administration of 0.1 ml/mouse of an active charcoal suspension (10 g of charcoal and 1 g of gum arabicum +70 ml of distilled water). 1.5 hours after the charcoal administration the animals were sacrificed, and the length travelled by the charcoal from the pylorus was measured.

central nervous system = assay: Effect on the central nervous system; assay type: in vivo, mice and rats
Acute toxicity in rats = conditions: rat, in vivo
Description: as §2

[15] = test system: bilaterally suprarenalectomized rats; assay: Carrageenan paw oedema in bilaterally suprarenalectomized rats; assay type: in vivo; conditions: 200 mg/kg per os
Description: as §1, §3

O=c1c2ccccc2oc2ncccc12 [1-azaxanthone]
liver elimination of sulphobromophthalein (rats [1]): eliminated sulphobromophthalein well
tolerance of gastric and rectal mucosae (rats [1]): tolerated the compound well
reversibility of hepatomegaly (rats [2]; another study, on discontinuing the administration): fully reversible
hepatomegaly (rats [2]; oral, 42 days): developed a hepatomegaly
histology of hepatomegaly (rats [2]; oral, 42 days): increased volume of hepatic nucleoles
drug-related toxic effect (rats [2]; oral, 42 days, up to 200 mg/kg/day): did not show any drug-related toxic effect
ED50 (mice [3]): 2.8 mg/kg
animals with analgesia (rats [4]): 50%
EC (maximum relaxation) ([5]; read-out: concentration producing maximum relaxation of the tracheal muscle): 20 µg/mL
minimal effective concentration ([5]; read-out: minimum effective dose (tracheal relaxation)): ~5 µg/mL
effect on schistosomiasis infections [6]: did not show any "significant effect on schistosomiasis infections"
inhibition of response induced by histamine (guinea pig [7]; 5 min after administration): 100%
inhibition of response induced by histamine (guinea pig [7]; 10 min after administration): 67%
inhibition of response induced by histamine (guinea pig [7]; 20 min after administration): 50%
inhibition of response induced by histamine (guinea pig [7]; 30 min after administration): 15%
LD50 ([8]; ip): 400 to 600 mg/kg
LD50 ([8]; oral): 600 to 2000 mg/kg
ED50 (mice [9]): 21 mg/kg
activity in granuloma pouch (granuloma pouch): showed activity
inhibition of response induced by bradykinin (guinea pig [10]): 100%
activity in Mycob. Butyricum induced arthritis [11]: showed activity
teratogenic potential (rats [12]): did not show any clear specific teratogenic potential
ED50 (rat paw oedema): 21.7 mg/kg
solubility ([13]; 0.1 N HCl): 70 µg/mL (≈ 0.355 mM)
solubility ([13]; 0.1 N NaOH): 70 µg/mL (≈ 0.355 mM)
solubility ([13]; aqueous buffer, buffer pH 7.4): 60 µg/mL (≈ 0.304 mM)
solubility ([13]; organic solvent or mixture, chloroform): > 50000 µg/mL
solubility ([13]; organic solvent or mixture, dioxane): 65000 µg/mL (≈ 330 mM)
solubility ([13]; organic solvent or mixture, ethanol): 6200 µg/mL (≈ 31.4 mM)
solubility ([13]; organic solvent or mixture, ethyl acetate): 20000 µg/mL (≈ 101 mM)
solubility ([13]; organic solvent or mixture, methanol): 7600 µg/mL (≈ 38.5 mM)
solubility ([13]; organic solvent or mixture, propyleneglycol): 5000 µg/mL (≈ 25.4 mM)
solubility ([13]; water): 80 µg/mL (≈ 0.406 mM)
effect on the cardiocirculatory system (cardiocirculatory system): no effect on the cardiocirculatory system
inhibition of charcoal intestinal transit (mice [14]; 4 mg/kg i.p.): 15%
inhibition of charcoal intestinal transit (mice [14]; 6.2 mg/kg i.p.): 22%
inhibition of charcoal intestinal transit (mice [14]; 12.5 mg/kg i.p.): 37%
inhibition of charcoal intestinal transit (mice [14]; doses lower than 4 mg/kg i.p.): inactive
activity on the central nervous system (central nervous system; in vivo): Clear activity on the central nervous system was not observed
signs of depression (central nervous system; mice and rats at high doses): some signs of depression
LD50 (Acute toxicity in rats; ip, female rats): 420 mg/kg
LD50 (Acute toxicity in rats; po, orally, male rats): ~2000 mg/kg
inhibition of oedema [15]: 39%
